Test results reported in patent publication US6525059B1, “Substituted pyrazoles as p38 kinase inhibitors” (G. D. Searle & Company, priority 1998, dated 2003).

How the values were obtained:
TNF a = assay: LPS stimulation of human PBMs, TNF a by ELISA; assay type: cell-based; conditions: LPS-stimulated human PBMs, TNF cell assay; read-out: Human PBM Assay IC50
Procedure: Human whole blood was collected in Vacutainer tubes containing EDTA as an anticoagulant. A blood sample (7 ml) was carefully layered over 5 ml PMN Cell Isolation Medium (Robbins Scientific) in a 15 ml round bottom centrifuge tube. The sample was centrifuged at 450-500×g for 30-35 minutes in a swing out rotor at room temperature. After centrifugation, the top band of cells were removed and washed 3 times with PBS w/o calcium or magnesium. The cells were centrifuged at 400×g for 10 minutes at room temperature. The cells were resuspended in Macrophage Serum Free Medium (Gibco BRL) at a concentration of 2 million cells/ml.
Compounds were dissolved in DMSO initially and diluted in TCM for a final-concentration of 0.1% DMSO. LPS (Calbiochem, 20 ng/ml, final concentration) was then added at a volume of 0.010 ml. Cultures were incubated overnight at 37° C. Supernatants were then removed and tested by ELISA for TNF a and IL1-b. Viability was analyzed using MTS. After 0.1 ml supernatant was collected, 0.0,20 ml MTS was added to remaining 0.1 ml cells.

human p38 kinase alpha = biological target: T1, human p38 kinase alpha (Homo sapiens, UniProt Q16539); assay: p38 kinase in vitro assay, phosphorylation of biotinylated PHAS-I with gamma 32P-ATP; assay type: biochemical; conditions: activated human p38 kinase alpha, PHAS-I substrate, 50 μM unlabeled ATP; read-out: p38 kinase IC50
T1 construct: The coding region of the human p38a cDNA was obtained by PCR-amplification from RNA isolated from the human monocyte cell line THP.1; GST (N); made in house; host or cells: E. coli DH10B
T1 sequence (Q16539 whole entry): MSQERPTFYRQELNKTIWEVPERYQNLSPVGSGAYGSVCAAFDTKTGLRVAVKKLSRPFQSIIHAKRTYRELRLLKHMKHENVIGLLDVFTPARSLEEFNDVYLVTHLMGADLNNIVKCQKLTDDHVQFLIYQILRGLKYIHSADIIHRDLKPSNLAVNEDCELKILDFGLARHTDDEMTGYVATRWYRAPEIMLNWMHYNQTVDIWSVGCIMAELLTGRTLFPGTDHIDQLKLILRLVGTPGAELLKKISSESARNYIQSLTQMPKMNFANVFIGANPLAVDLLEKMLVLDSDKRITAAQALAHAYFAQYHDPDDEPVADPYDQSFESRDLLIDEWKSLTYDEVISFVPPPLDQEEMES
How it was run: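 Radiometric filter-capture read-out: streptavidin plates trap biotin-PHAS-I labelled by activated (MKK6) human p38α from γ-32P-ATP. Buffer 25 mM HEPES pH 7.5, 10 mM magnesium acetate, 50 μM cold ATP; reactions 1 h or overnight at 30 °C; inhibitors 10-fold dilutions 100 to 0.001 μM, triplicates, 1% DMSO.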

TNF-α = assay: LPS stimulation of TNF production by U937 cells; assay type: cell-based, human; conditions: Homo sapiens, U-937, LPS-stimulated U937 cells; read-out: U937 Cell Assay IC50
How it was run: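 PMA-differentiated human U937 cells (20 ng/ml PMA, 24 h, then 24-48 h rest) at 2 million cells/ml, 0.1% DMSO final, stimulated with E. coli LPS (100 ng/ml final) for 4 h at 37° C. TNF-α in medium measured by ELISA; IC50 in μM.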

**Q.** For `Cc1n[nH]c(-c2cccc(Oc3ccccc3)c2)c1-c1ccncc1` [Example A-13], which IC50 (TNF a) is on record?
**A.** 4800 nM

**Q.** For `Cc1cccc(-c2[nH]nc(C(F)(F)F)c2-c2ccncc2)c1` [Example A-22, 4-[5-(3-methylphenyl)-3-(trifluoromethyl)-1H-pyrazol-4-yl]pyridine], which IC50 (TNF a) is on record?
**A.** 3200 nM

**Q.** What about the melting point of the same compound?
**A.** 237 to 239 °C

**Q.** For `Cc1cccc(-c2[nH]nc(C)c2-c2ccncc2)c1` [Example A-8], which IC50 (human p38 kinase alpha) is on record?
**A.** < 100 nM

**Q.** What about the IC50 (TNF a) of the same compound?
**A.** < 100 nM

**Q.** What does the source list for `CCc1[nH]nc(-c2cccc(C)c2)c1-c1ccncc1` [Example A-45]?
**A.** IC50 (human p38 kinase alpha): < 100 nM; IC50 (TNF a): < 100 nM

**Q.** With `Cc1[nH]nc(-c2ccc(F)cc2)c1-c1ccncc1` [Example 4, 4-[3-(4-fluorophenyl)-5-methyl-1H-pyrazol-4-yl)pyridine] as the compound, how does the IC50 (TNF a) read?
**A.** 100 nM

**Q.** What about the IC50 (TNF-α) of the same compound?
**A.** 222 nM

**Q.** Which IC50 (TNF a) does the source give for `Cc1ccc(C)c(-c2[nH]nc(C)c2-c2ccncc2)c1` [Example A-9] here?
**A.** 400 nM

**Q.** For `COc1ccc(-c2[nH]nc(C)c2-c2ccncc2)cc1F` [Example A-1, 4-[5-(3-fluoro-4-methoxyphenyl)-3-methyl-1H-pyrazol-4-yl]pyridine], which IC50 (human p38 kinase alpha) is on record?
**A.** 4600 nM

**Q.** And the IC50 (TNF a)?
**A.** 500 nM

**Q.** With `Cc1n[nH]c(-c2ccc3c(c2)OCO3)c1-c1ccncc1` [Example A-10, 4-[5-(1,3-benzodioxol-5-yl)-3-methyl-1H-pyrazol-4-yl]pyridine] as the compound, how does the IC50 (TNF a) read?
**A.** 700 nM

**Q.** And the IC50 (TNF-α)?
**A.** 1690 nM

**Q.** With `Cc1n[nH]c(-c2ccc(Cl)cc2)c1-c1ccncc1` [Example A-7, 4-(3-(4-chlorophenyl)-5-methyl-1H-pyrazol-4-yl)pyridine] as the compound, how does the IC50 (TNF a) read?
**A.** 200 nM

**Q.** And the IC50 (TNF-α)?
**A.** 201 nM

**Q.** Which IC50 (TNF a) does the source give for `Cc1n[nH]c(-c2ccc(-c3ccccc3)cc2)c1-c1ccncc1` [Example A-12, 4-[5-[(1,1′-biphenyl)-4-yl]-3-methyl-1H-pyrazol-4-yl]pyridine] here?
**A.** 8500 nM

**Q.** With `Cc1n[nH]c(-c2cccc(OCc3ccccc3)c2)c1-c1ccncc1` [Example A-14, 4-[3-methyl-5-[3-(phenylmethoxy)phenyl]-1H-pyrazol-4-yl]pyridine] as the compound, how does the IC50 (TNF a) read?
**A.** 1200 nM

**Q.** For `Cc1n[nH]c(C2CCCCC2)c1-c1ccncc1` [Example A-24], which IC50 (TNF a) is on record?
**A.** 8200 nM

**Q.** Which IC50 (TNF a) does the source give for `Cc1n[nH]c(-c2cccc(O)c2)c1-c1ccncc1` [Example A-17, 3-[3-methyl-4-(4-pyridinyl)-1H-pyrazol-4-yl]phenol] here?
**A.** 1100 nM

**Q.** Which results are given for `Cc1n[nH]c(-c2ccccc2)c1-c1ccncc1` [Example A-2, 4-(3-methyl-5-phenyl-1H-pyrazol-4-yl)pyridine]?
**A.** IC50 (human p38 kinase alpha): 1500 nM; IC50 (TNF a): 1600 nM; IC50 (TNF-α): 578 nM; melting point: 212 to 214 °C

**Q.** For `CN(C)c1n[nH]c(-c2ccc(F)cc2)c1-c1ccncc1` [Example A-19, 5-(4-fluorophenyl)-N, N-dimethyl-4-(4-pyridinyl)-1H-pyrazol-3-amine], which IC50 (TNF a) is on record?
**A.** 300 nM

**Q.** And the IC50 (TNF-α)?
**A.** 484 nM

**Q.** What about the melting point of the same compound?
**A.** 245 to 247 °C
